Results taken from patent US9371320B2, “Heterocyclic compound” (TAKEDA PHARMACEUTICAL COMPANY LIMITED, priority 2012, dated 2016).
Read-outs that look alike come from different tables or passages of the source.

Key:
JAK1 = target: T1, JAK1 (Homo sapiens, UniProt P23458); assay: JAK1 enzyme inhibition test (LANCE method); type: biochemical; conditions: for inhibition at 10 µM: read-out: Inhibitory rate (%) JAK1 10 μM; for inhibition at 1 µM: test compound 1 μM, read-out: Inhibitory rate (%) JAK1 1 μM
T1 construct: purchased Invitrogen
T1 sequence (P23458 whole entry): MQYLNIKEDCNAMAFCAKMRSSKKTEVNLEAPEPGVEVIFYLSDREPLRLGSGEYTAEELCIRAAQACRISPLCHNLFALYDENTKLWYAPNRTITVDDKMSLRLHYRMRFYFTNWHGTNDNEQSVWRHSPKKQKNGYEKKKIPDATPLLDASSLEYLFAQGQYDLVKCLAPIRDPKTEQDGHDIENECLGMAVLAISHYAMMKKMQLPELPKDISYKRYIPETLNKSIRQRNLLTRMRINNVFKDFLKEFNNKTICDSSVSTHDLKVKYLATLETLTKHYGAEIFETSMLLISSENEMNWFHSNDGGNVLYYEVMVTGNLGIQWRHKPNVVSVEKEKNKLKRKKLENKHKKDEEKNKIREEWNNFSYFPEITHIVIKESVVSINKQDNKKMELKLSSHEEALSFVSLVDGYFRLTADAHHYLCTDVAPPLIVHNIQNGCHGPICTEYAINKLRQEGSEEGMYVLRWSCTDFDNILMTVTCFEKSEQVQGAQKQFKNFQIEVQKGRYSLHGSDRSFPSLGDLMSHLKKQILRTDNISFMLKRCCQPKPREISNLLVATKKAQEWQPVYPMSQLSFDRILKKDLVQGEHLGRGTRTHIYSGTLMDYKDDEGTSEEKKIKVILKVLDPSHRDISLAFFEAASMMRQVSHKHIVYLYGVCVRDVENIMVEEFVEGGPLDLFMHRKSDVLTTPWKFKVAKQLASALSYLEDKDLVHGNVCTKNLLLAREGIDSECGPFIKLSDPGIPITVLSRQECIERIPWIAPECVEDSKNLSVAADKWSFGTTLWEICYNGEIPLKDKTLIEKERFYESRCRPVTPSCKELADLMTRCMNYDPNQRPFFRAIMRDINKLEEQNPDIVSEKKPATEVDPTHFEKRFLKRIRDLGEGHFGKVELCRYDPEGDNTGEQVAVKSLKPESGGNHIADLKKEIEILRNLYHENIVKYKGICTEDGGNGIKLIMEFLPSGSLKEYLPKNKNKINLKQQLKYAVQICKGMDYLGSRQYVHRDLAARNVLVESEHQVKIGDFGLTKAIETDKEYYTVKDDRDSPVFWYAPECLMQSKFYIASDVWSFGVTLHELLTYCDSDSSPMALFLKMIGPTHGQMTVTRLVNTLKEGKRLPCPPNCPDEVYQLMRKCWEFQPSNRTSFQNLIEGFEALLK
In short: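 TR-FRET (LANCE) kinase assay using JAK1 at 187.5 ng/mL, ULight-JAK1 peptide at 300 nM and ATP at 150 μM, given as solution concentrations before mixing. Buffer was 50 mM HEPES pH 7.5 with 10 mM MgCl2 and 2 mM DTT, and the reaction ran 1 h at room temperature. Eu anti-phosphotyrosine signal at 665 nm was expressed relative to a no-enzyme well, taken as 100% inhibition.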

Tyk2 = target: T2, Tyk2 (Homo sapiens, UniProt P29597); assay: Tyk2 enzyme inhibition test (LANCE method); type: biochemical; conditions: for inhibition at 1 µM: read-out: Inhibitory rate (%) Tyk2 1 μM
T2 construct: purchased Invitrogen
T2 sequence (P29597 whole entry): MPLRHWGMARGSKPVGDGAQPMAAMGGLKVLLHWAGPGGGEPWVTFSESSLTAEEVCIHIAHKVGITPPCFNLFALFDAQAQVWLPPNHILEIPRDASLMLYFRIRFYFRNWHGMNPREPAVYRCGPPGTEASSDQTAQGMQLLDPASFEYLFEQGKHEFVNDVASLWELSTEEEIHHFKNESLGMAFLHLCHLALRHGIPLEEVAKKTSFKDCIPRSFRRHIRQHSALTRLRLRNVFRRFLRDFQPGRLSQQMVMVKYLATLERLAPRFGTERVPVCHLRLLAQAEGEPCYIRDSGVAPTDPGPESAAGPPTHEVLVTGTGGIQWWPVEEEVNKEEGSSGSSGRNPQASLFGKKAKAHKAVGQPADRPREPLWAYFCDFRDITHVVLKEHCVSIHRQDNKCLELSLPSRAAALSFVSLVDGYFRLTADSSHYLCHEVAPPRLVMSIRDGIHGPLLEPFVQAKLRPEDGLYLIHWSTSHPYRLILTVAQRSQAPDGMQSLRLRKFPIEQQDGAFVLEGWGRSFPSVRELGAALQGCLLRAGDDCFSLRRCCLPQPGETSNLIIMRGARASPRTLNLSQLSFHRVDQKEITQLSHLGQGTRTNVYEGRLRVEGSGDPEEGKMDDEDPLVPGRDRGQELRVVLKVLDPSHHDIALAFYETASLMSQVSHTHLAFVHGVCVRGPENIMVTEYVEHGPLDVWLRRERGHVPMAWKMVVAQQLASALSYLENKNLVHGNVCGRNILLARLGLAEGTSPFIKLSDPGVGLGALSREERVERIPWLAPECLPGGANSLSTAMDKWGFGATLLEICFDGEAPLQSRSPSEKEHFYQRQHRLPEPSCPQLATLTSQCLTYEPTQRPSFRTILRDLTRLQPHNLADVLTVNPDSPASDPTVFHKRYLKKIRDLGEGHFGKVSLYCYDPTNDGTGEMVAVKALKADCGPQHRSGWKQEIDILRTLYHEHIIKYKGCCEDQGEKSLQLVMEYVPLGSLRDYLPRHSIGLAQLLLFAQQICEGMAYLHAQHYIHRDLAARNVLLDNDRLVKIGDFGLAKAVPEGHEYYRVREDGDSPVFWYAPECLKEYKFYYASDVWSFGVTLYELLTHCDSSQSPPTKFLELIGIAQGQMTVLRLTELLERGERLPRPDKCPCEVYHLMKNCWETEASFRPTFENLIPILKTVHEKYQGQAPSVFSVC
In short: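 Recombinant Tyk2 (375 ng/mL stock) with ULight-JAK1 peptide (300 nM stock) and ATP (30 μM stock) in HEPES pH 7.5/MgCl2/EGTA/DTT buffer, 1 h at room temperature. Stopped with EDTA plus Eu-anti-phosphotyrosine antibody; TR-FRET read at 665 nm after 1 h. No-enzyme wells define 100% inhibition.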

[1] = test compound 10 μM (Ex. 182-220), beside Tyk2 1 μM

Row | Structure (SMILES) | inhibition at 10 µM (JAK1; [1]) [%] | inhibition at 1 µM (Tyk2; test compound 1 μM) [%] | inhibition at 1 µM (JAK1) [%] | also measured
1 | O=c1[nH]ccc2c1c(-c1cn[nH]c1)nn2C1CCCC1 [Example 204, 1-cyclopentyl-3-(1H-pyrazol-4-yl)-1,5-dihydro-4H-pyrazolo[4,3-c]pyridin-4-one] | 98 | 98 | – | –
2 | O=c1[nH]cc(Cl)c2c1c(-c1cnn(C3CCOCC3)c1)nn2-c1c(F)cccc1F [Example 205, 7-chloro-1-(2,6-difluorophenyl)-3-(1-(tetrahydro-2H-pyran-4-yl)-1H-pyrazol-4-yl)-1,5-dihydro-4H-pyrazolo[4,3-c]pyridin-4-one] | 34 | 97 | – | –
3 | O=c1[nH]cc(Cl)c2c1c(C1CC1)nn2-c1c(F)cccc1F [Example 208, 7-chloro-3-cyclopropyl-1-(2,6-difluorophenyl)-1,5-dihydro-4H-pyrazolo[4,3-c]pyridin-4-one] | – | – | – | inhibition at 10 µM (JAK1; test compound 10 μM): 28%; inhibition at 10 µM (Tyk2; test compound 10 μM, read-out: Inhibitory rate (%) Tyk2 10 μM): 83%
4 | CCC1(O)CCC(n2nc(-c3ccc(S(N)(=O)=O)cc3)c3c(=O)[nH]ccc32)CC1 (centres unmarked) [Example 209, 4-(1-(4-ethyl-4-hydroxycyclohexyl)-4-oxo-4,5-dihydro-1H-pyrazolo[4,3-c]pyridin-3-yl)benzenesulfonamide] | 99 | 99 | – | –
5 | CCC1(O)CCC(n2nc(-c3ccc(S(N)(=O)=O)cc3)c3c(=O)[nH]ccc32)CC1 (centres unmarked) [Example 210, 4-(1-(4-ethyl-4-hydroxycyclohexyl)-4-oxo-4,5-dihydro-1H-pyrazolo[4,3-c]pyridin-3-yl)benzenesulfonamide] | – | – | – | Inhibitory rate (%) JAK1 10 μM (JAK1; [1]): 99%; Inhibitory rate (%) Tyk2 1 μM (Tyk2; test compound 1 μM): 97%
6 | Cc1ccccc1-n1nc(-c2ccc(S(N)(=O)=O)cc2)c2c(=O)[nH]ccc21 [Example 211, 4-(1-(2-methylphenyl)-4-oxo-4,5-dihydro-1H-pyrazolo[4,3-c]pyridin-3-yl)benzenesulfonamide] | 99 | 98 | – | –
7 | NS(=O)(=O)c1ccc(-c2nn(-c3ccccc3C(F)(F)F)c3cc[nH]c(=O)c23)cc1 [Example 212, 4-(4-oxo-1-(2-(trifluoromethyl)phenyl)-4,5-dihydro-1H-pyrazolo[4,3-c]pyridin-3-yl)benzenesulfonamide] | 99 | 96 | – | –
8 | NS(=O)(=O)c1ccc(-c2nn(-c3ccccc3F)c3cc[nH]c(=O)c23)cc1 [Example 213, 4-(1-(2-fluorophenyl)-4-oxo-4,5-dihydro-1H-pyrazolo[4,3-c]pyridin-3-yl)benzenesulfonamide] | 98 | 99 | – | –
9 | NS(=O)(=O)c1ccc(-c2nn(-c3ccccc3Cl)c3cc[nH]c(=O)c23)cc1 [Example 214, 4-(1-(2-chlorophenyl)-4-oxo-4,5-dihydro-1H-pyrazolo[4,3-c]pyridin-3-yl)benzenesulfonamide] | 99 | 99 | – | –
10 | O=c1[nH]cc(Br)c2c1c(-c1ccc(N3CCOCC3)cc1)nn2-c1c(F)cccc1F [Example 218, 7-bromo-1-(2,6-difluorophenyl)-3-(4-(morpholin-4-yl)phenyl)-1,5-dihydro-4H-pyrazolo[4,3-c]pyridin-4-one] | 85 | 99 | – | –
11 | CNS(=O)(=O)c1ccc(-c2nn(C3CCCC3)c3cc[nH]c(=O)c23)cc1 [Example 223, 4-(1-cyclopentyl-4-oxo-4,5-dihydro-1H-pyrazolo[4,3-c]pyridin-3-yl)-N-methylbenzenesulfonamide] | – | 97 | 99 | –
12 | N#Cc1c[nH]c(=O)c2c(-c3cn[nH]c3)nn(-c3c(F)cccc3F)c12 [Example 228, 1-(2,6-difluorophenyl)-4-oxo-3-(1H-pyrazol-4-yl)-4,5-dihydro-1H-pyrazolo[4,3-c]pyridine-7-carbonitrile] | – | 99 | 85 | –
13 | N#Cc1c[nH]c(=O)c2c(-c3ccc(N4CCOCC4)cc3)nn(-c3c(F)cccc3F)c12 [Example 229, 1-(2,6-difluorophenyl)-3-(4-(morpholin-4-yl)phenyl)-4-oxo-4,5-dihydro-1H-pyrazolo[4,3-c]pyridine-7-carbonitrile] | – | 98 | 81 | –

Second part, led by results:

Row | inhibition at 10 µM (JAK1; [1]) [%] | inhibition at 1 µM (Tyk2; test compound 1 μM) [%] | inhibition at 1 µM (JAK1) [%] | Structure (SMILES) | also measured
14 | 81 | 100 | – | O=c1[nH]cc(Cl)c2c1c(-c1csc(CN3CCOCC3)c1)nn2-c1c(F)cccc1F [Example 203, 7-chloro-1-(2,6-difluorophenyl)-3-(5-(morpholin-4-ylmethyl)-3-thienyl)-1,5-dihydro-4H-pyrazolo[4,3-c]pyridin-4-one] | –
15 | 45 | 100 | – | O=c1[nH]cc(Cl)c2c1c(-c1ccc(N3CCOCC3)c(F)c1)nn2-c1c(F)cccc1F [Example 206, 7-chloro-1-(2,6-difluorophenyl)-3-(3-fluoro-4-(morpholin-4-yl)phenyl)-1,5-dihydro-4H-pyrazolo[4,3-c]pyridin-4-one] | –
16 | 73 | 100 | – | O=c1[nH]cc(Cl)c2c1c(-c1ccc(N3CCCOCC3)cc1)nn2-c1c(F)cccc1F [Example 207, 7-chloro-1-(2,6-difluorophenyl)-3-(4-(1,4-oxazepan-4-yl)phenyl)-1,5-dihydro-4H-pyrazolo[4,3-c]pyridin-4-one] | –
17 | 22 | 94 | – | NC(=O)c1ccc(-c2nn(-c3c(F)cccc3F)c3c(Cl)c[nH]c(=O)c23)cc1F [Example 215, 4-(7-chloro-1-(2,6-difluorophenyl)-4-oxo-4,5-dihydro-1H-pyrazolo[4,3-c]pyridin-3-yl)-2-fluorobenzamide] | –
18 | 27 | 97 | – | CNC(=O)c1ccc(-c2nn(-c3c(F)cccc3F)c3c(Cl)c[nH]c(=O)c23)cc1F [Example 216, 4-(7-chloro-1-(2,6-difluorophenyl)-4-oxo-4,5-dihydro-1H-pyrazolo[4,3-c]pyridin-3-yl)-2-fluoro-N-methylbenzamide] | –
19 | 74 | 99 | – | COCCNC(=O)COc1ccc(-c2nn(-c3c(F)cccc3F)c3c(Cl)c[nH]c(=O)c23)cc1 [Example 217, 2-(4-(7-chloro-1-(2,6-difluorophenyl)-4-oxo-4,5-dihydro-1H-pyrazolo[4,3-c]pyridin-3-yl)phenoxy)-N-(2-methoxyethyl)acetamide] | –
20 | 82 | 98 | – | O=C1CCC(=O)N1Cc1ccc(-c2nn(-c3c(F)cccc3F)c3c(Cl)c[nH]c(=O)c23)cc1 [Example 219, 1-(4-(7-chloro-1-(2,6-difluorophenyl)-4-oxo-4,5-dihydro-1H-pyrazolo[4,3-c]pyridin-3-yl)benzyl)pyrrolidine-2,5-dione] | –
21 | 98 | 100 | – | O=C1CCCN1Cc1cc(-c2nn(-c3c(F)cccc3F)c3c(Cl)c[nH]c(=O)c23)cs1 [Example 220, 7-chloro-1-(2,6-difluorophenyl)-3-(5-((2-oxopyrrolidin-1-yl)methyl)-3-thienyl)-1,5-dihydro-4H-pyrazolo[4,3-c]pyridin-4-one] | –
22 | – | 99 | 80 | CNC(=O)COc1ccc(-c2nn(-c3c(F)cccc3F)c3c(Cl)c[nH]c(=O)c23)cc1 [Example 221, 2-(4-(7-chloro-1-(2,6-difluorophenyl)-4-oxo-4,5-dihydro-1H-pyrazolo[4,3-c]pyridin-3-yl)phenoxy)-N-methylacetamide] | –
23 | – | 98 | 69 | CCNC(=O)n1cc(-c2nn(-c3c(F)cccc3F)c3c(Cl)c[nH]c(=O)c23)cn1 [Example 222, 4-(7-chloro-1-(2,6-difluorophenyl)-4-oxo-4,5-dihydro-1H-pyrazolo[4,3-c]pyridin-3-yl)-N-ethyl-1H-pyrazole-1-carboxamide] | –
24 | – | 99 | 78 | O=C1CCCN1Cc1ccc(-c2nn(-c3c(F)cccc3F)c3c(Cl)c[nH]c(=O)c23)cc1 [Example 224, 7-chloro-1-(2,6-difluorophenyl)-3-(4-((2-oxopyrrolidin-1-yl)methyl)phenyl)-1,5-dihydro-4H-pyrazolo[4,3-c]pyridin-4-one] | –
25 | – | 99 | 58 | O=C1NCCN1c1ccc(-c2nn(-c3c(F)cccc3F)c3c(Cl)c[nH]c(=O)c23)cc1 [Example 225, 7-chloro-1-(2,6-difluorophenyl)-3-(4-(2-oxoimidazolidin-1-yl)phenyl)-1,5-dihydro-4H-pyrazolo[4,3-c]pyridin-4-one] | –
26 | – | 98 | 40 | Cn1cnc2cc(-c3nn(-c4c(F)cccc4F)c4c(Cl)c[nH]c(=O)c34)ccc21 [Example 226, 7-chloro-1-(2,6-difluorophenyl)-3-(1-methyl-1H-benzimidazol-5-yl)-1,5-dihydro-4H-pyrazolo[4,3-c]pyridin-4-one] | –
27 | – | 97 | 54 | O=C1Cc2ccc(-c3nn(-c4c(F)cccc4F)c4c(Cl)c[nH]c(=O)c34)cc2N1 [Example 227, 7-chloro-1-(2,6-difluorophenyl)-3-(2-oxo-2,3-dihydro-1H-indol-6-yl)-1,5-dihydro-4H-pyrazolo[4,3-c]pyridin-4-one] | –
28 | – | 99 | 92 | NC(=O)c1ccc(-c2nn(-c3c(F)cccc3F)c3cc[nH]c(=O)c23)cc1 [Example 230, 4-(1-(2,6-difluorophenyl)-4-oxo-4,5-dihydro-1H-pyrazolo[4,3-c]pyridin-3-yl)benzamide] | –
